≈ marks a conversion by molar mass, not a printed value.
Experiments:
[1] = system: Adult Bovine Aortic Endothelial (ABAE) cell line; assay: Antiproliferative activity in ABAE cells, PROTOCOL 2 (48 h, SRB, single well); type: cell-based; details: Bos taurus; ABAE cells, 48 h, PROTOCOL 2
Experimental: (§1) PROTOCOL 1, 2, and 3 are described in greater detail hereinbelow. In general, according to PROTOCOLS 1 and 2, the target ABAE and/or Human Tumor cells are exposed to the compound of Formula I for 48 hours. PROTOCOL 3 exposes ABAE cell to the compound for 4 days. A detailed description of the protocol is as follows:
(§2) Antiproliferative Activity in Human Tumor and Adult Bovine Aortic Endothelial (ABAE) Cell Lines
(§3) The antiproliferative activity of the compounds of Formula I is evaluated in a panel comprised of human tumor cell lines and an adult bovine aortic endothelial cell line (ABAE) as listed in PROTOCOL 1. This assay is a modification of PROTOCOL 1. The modifications include:
(§4) 1) each concentration for each compound is tested in a single well;
(§5) 2) compounds are tested at 20, 4, 0.8, 0.16 microgram/ml and additionally in some experiments at 100 and 0.32 microgram/ml;
(§6) 3) samples are pipetted into a 96-well plate for each of the cell lines by a Beckman Biomek 1000 SL robot;
(§7) 4) after fixing with TCA each well is washed with 0.35 ml distilled water twice, not five times;
5) after staining with sulforhodamine B each well is washed 3 times, not five times;
6) the growth inhibition (I) as % of control, is calculated using the RS-1 data package (BBN Software), for every concentration of drug, as follows: [formula] wherein: T is optical density measurement for treated cells after 48 hours;
(§8) C is optical density measurement for untreated cells after 48 hours;
7) IC50 of growth inhibition is determined from graphically from dose response curves, as is known in the art.
Table 1 presents the results depicting the antiproliferative activity of the compounds of Formula I against an Adult Bovine Aortic Endothelial (ABAE) cell line, as evaluated by PROTOCOL 1 and PROTOCOL 2. The results are presented in terms of IC50 and are as follows.

[2] = system: Adult Bovine Aortic Endothelial (ABAE) cell line; assay: Antiproliferative activity in ABAE cells, PROTOCOL 3 (4 days, cell count); type: cell-based; details: Bos taurus, 96 h, PROTOCOL 3, FIG. 1, read-out: inhibits 50% of cell growth
Experimental: as §1
Antiproliferative Activity in Adult Bovine Aortic Endothelial (ABAE) Cell Line
ABAE cells are grown in DMEM media (Mediatech, Washington, D.C.) supplemented with 10% calf serum (Hyclone). ABAE cells are plated in 24-well dishes at 8,000 cells/well, followed by the addition of increasing concentrations of 7-[substituted amino]-9-[(substituted glycyl)amido]-6-demethyl-6-deoxytetracyclines. After four days, the cells are detached and counted. […] The growth inhibition (I) as % of control is calculated as follows: [formula] wherein: Nc is the number of cells in untreated wells;
Nt is the number of cells in treated wells;
No is the number of plated cells.
IC50 of growth inhibition is determined from the sets of I values plotted by Kaleidograph software (Abelbeck Software).
In addition FIG. 1, presents the dose response curve of the compound of Example 6 for the above ABAE cell line obtained by PROTOCOL 3.

A2780S = assay: Antiproliferative activity in human ovarian tumor cell line A2780S; type: cell-based; details: Homo sapiens, A2780S, PROTOCOL 1 and PROTOCOL 2
Experimental: as §1, §2
(§9) The antiproliferative activity of the compounds of Formula I of the present invention is evaluated in a panel comprised of human tumor cell lines and an adult bovine aortic endothelial cell line (ABAE). The human tumor cell lines are from:
(§10) All cell lines are maintained in log phase in RPMI 1640 media, supplemented with 5% fetal calf serum, penicillin/streptomycin and 2 mM L-glutamine. Cultures are renewed after 20 passages with cells from a fresh stock of batch-frozen early passage cells. Cell lines are routinely checked for mycoplasma contamination (Genprobe). In a laminar flow hood, cells (1-5×10^4) are plated into 96-well microtiter plates in a volume of 0.1 ml/well with a bulk microtiter dispenser (Denley). […] At this concentration, dimethylsulfoxide has no effect on cell growth. Compounds are added using a Tomtec dispenser which simultaneously dispenses from one 96-well plate, containing the drug dilutions, to the plates containing the cells. After two days of continuous drug exposure, 50% cold trichloroacetic acid (TCA) is added to 10% final concentration to fix the cells, and after 60 minutes at 4° C., the TCA is aspirated and the plates are washed 5 times with deionized water using a microtiter plate washer. The number of cells on the plate are quantitated using a protein dye-binding assay (Monks et al., 1991). A 0.4% solution of the dye, sulforhodamine B, in glacial acetic acid is added to the plates, and the plates are washed 5 times with 1% glacial acetic acid using the automatic plate washed. The bound stain is solubilized with 0.1 ml of 10 mM Tris base. The optical densities are read from an automatic spectrophotometric plate reader (Dynatech) directly to a main frame computer (VAX 8600).
(§11) Positive controls, that include standard chemotherapeutic drugs (i.e., adriamycin, cisplatin, etc.), are included in every experiment.
(§12) Background optical density measurements (complete media-cells, and complete media+drug-cells) are automatically subtracted from the appropriate control and test wells. Mean values and standard errors are determined from duplicate wells. A measure is also made of the optical density at time when the drugs are added. The number of cells after treatment (P), as % of control, is calculated for every concentration of drug, as follows: [formula] wherein: T is optical density measurement for treated cells after 48 hours;
as §8
(§13) Co is optical density measurement for cells at the time of drug addition.
(§14) IC50 of growth inhibition is calculated from the sets of P values using the RS-1 data package (BBN Software).
as §3, §4, §5, §6, §7
(§15) 5) after staining with sulforhodamine B each well is washed 3 times, not five times; […]

MIP = assay: Antiproliferative activity in human colon tumor cell line MIP; type: cell-based; details: Homo sapiens, PROTOCOL 1 and PROTOCOL 2
Experimental: as §1, §2, §9
(§16) 2) Colon tumors: MIP, CaCo2, and SW620.
as §10, §11, §12, §8, §13, §14, §3, §4, §5, §6, §7, §15

HTB 16 = assay: Antiproliferative activity in human tumor cell line HTB 16; type: cell-based; details: Homo sapiens; ovarian tumor line; PROTOCOL 1 and PROTOCOL 2
Experimental: as §1, §2, §9, §10, §11, §12, §8, §13, §14, §3, §4, §5, §6, §7, §15

SW620 = assay: Antiproliferative activity in human colon tumor cell line SW620; type: cell-based; details: Homo sapiens, SW-620, PROTOCOL 1 and PROTOCOL 2
Experimental: as §1, §2, §9, §16, §10, §11, §12, §8, §13, §14, §3, §4, §5, §6, §7, §15

Human Tumor Cell lines = assay: Antiproliferative activity in panel of human tumor cell lines; type: cell-based; details: average over the tested human tumor cell lines
Experimental: as §1, §2, §9, §16, §10, §11, §12, §8, §13, §14, §3, §4, §5, §6, §7, §15

angiogenesis = details: Cancer Research 51, 672-675, Brem et al; vs combination of heparin and cortisone; cited from earlier work
tumor = details: in conjunction with cancer chemotherapy or radiation therapy; Teicher et al; cited from earlier work

CN(C)c1ccc(O)c2c1C[C@H]1C[C@H]3[C@H](N(C)C)C(O)=C(C(N)=O)C(=O)[C@@]3(O)C(O)=C1C2=O [Minocycline, reference compound]
IC50 [1]: ≥ 20 µg/mL
IC50 [2]: ~50 µg/mL (≈ 109 µM)
IC50 (A2780S): 6.1 µg/mL (≈ 13.3 µM)
IC50 (MIP): 6.1 µg/mL (≈ 13.3 µM)
IC50 (HTB 16): 5.8 µg/mL (≈ 12.7 µM)
IC50 (SW620): 6.5 µg/mL (≈ 14.2 µM)
IC50 (Human Tumor Cell lines): 6.6 µg/mL (≈ 14.4 µM)
extent of angiogenesis inhibition (angiogenesis): comparable to that of the combination therapy of heparin and cortisone
number of metastases (tumor): reduced
tumor growth (tumor): decreased

Reference: US5563130A, “Methods for inhibiting angiogenesis, proliferation of endothelial or tumor cells and tumor growth” (American Cyanamid Company, priority 1994, dated 1996)
